Patent US20080081814A1, “Carbonyl Compounds Which Can be Used as Inhibitors of Coagulation Factor Xa” (priority 2004, published 2008)

Target: factor Xa (Homo sapiens, UniProt P00742)
Assay: Factor Xa inhibition (FXa-IC50)
Type: biochemical
Excerpt: The inhibition of factor Xa by the compounds according to the invention and the measurement of the anticoagulant and antithrombotic activity can be determined by conventional in-vitro or in-vivo methods. A suitable method is described, for example, by J. Hauptmann et al. in Thrombosis and Haemostasis 1990, 63, 220-223.
The inhibition of factor Xa can be measured, for example by the method of T. Hara et al. in Thromb. Haemostas. 1994, 71, 314-319.

Sequence of factor Xa (P00742 235-488 limits assumed): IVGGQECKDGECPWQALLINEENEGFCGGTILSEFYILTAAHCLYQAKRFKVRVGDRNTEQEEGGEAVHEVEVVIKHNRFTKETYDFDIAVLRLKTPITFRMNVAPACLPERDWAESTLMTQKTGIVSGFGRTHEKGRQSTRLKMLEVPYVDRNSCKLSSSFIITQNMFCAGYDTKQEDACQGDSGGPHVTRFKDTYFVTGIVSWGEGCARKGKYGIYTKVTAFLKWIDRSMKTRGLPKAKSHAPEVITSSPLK
Sequence of factor Xa (P00742 41-179 partner limits assumed): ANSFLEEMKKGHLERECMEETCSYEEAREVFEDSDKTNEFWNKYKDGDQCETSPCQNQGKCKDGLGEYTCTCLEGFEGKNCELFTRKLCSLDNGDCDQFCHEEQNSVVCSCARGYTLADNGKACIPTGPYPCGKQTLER

Structure (SMILES): CCOC(=O)O[C@@H]1C[C@H](C(=O)Nc2ccc(N3CCOCC3=O)cc2)N(C(=O)Nc2ccc(Cl)cc2)C1 [Compound A1, N-1-(4-chlorophenyl)-4-(ethoxycarbonyloxy)-N-2-[4-(3-oxomorpholin-4-yl)phenyl)-(2R,4R)-pyrrolidine-1,2-dicarboxamide]
- IC50: 2 nM
